Legend:
[1] = tested on: Porina (Wiseana copularis) larvae; assay: Porina bioassay of purified epoxy-janthitrems (Example 6); type: in vivo; details: for inhibition of feeding at the highest concentration: highest concentration (10 μg/g wet weight); for Mortality of larvae: data not shown; for average diet consumption with increasing concentration: 1, 2.5, 10 μg/g wet weight, 21 days
Procedure: The porina bioassay was carried out as described in Example 4, with the following variations:
15 replicates were used per treatment;
the age of the larvae at the start of the experiment was 10 weeks;
diet was made weekly and replaced after 4 days within each week;
the average weight of diet consumed by the larvae, larval weight gain/loss (data not shown), and larval mortality (data not shown) was determined;
three concentrations of purified epoxy-janthitrems were used (1, 2.5, 10 μg/g wet weight) instead of four; and
an average daily diet consumption (mg/larva) across the 21 days of the trial was determined.

mice (Swiss, female) [2] = assay: Mouse tremor bioassay of purified epoxy-janthitrems (Example 7); type: in vivo; details: ip; for peak tremor score (comparison among epoxy-janthitrems): EJ I 13.5, EJ III 17.2, EJ triol 16.2 mg/kg
Procedure: Epoxy-janthitrem I, Epoxy-janthitrem II, Epoxy-janthitrem III, Epoxy-janthitrem IV, and Epoxy-janthitriol, were administered by intraperitoneal injection as DMSO/water solutions (9:1, 50 μL) into mice (Swiss, female, weight 25+3g). Control mice were injected with the solvent alone (data not shown). Groups of four mice were used for each treatment group. All animal manipulations were approved, and tremor score was calculated, as described above in Example 5.
The dosage rates were informed by the experiment described in Example 5 above, with dose rates as follows: epoxy-janthitrem I (EJ I, 13.5 mg/kg), epoxy-janthitrem II (EJ II, 14.2 mg/kg), epoxy-janthitrem III (EJ III, 17.2 mg/kg), epoxy-janthitrem IV (EJ IV, 16.5 mg/kg), epoxy-janthitriol (EJ triol, 16.2 mg/kg). Tremors were measured regularly until the mice had completely recovered.

mice (Swiss, female) [3] = assay: Mouse tremor bioassay (Example 5); type: in vivo
Procedure: Epoxy-janthitrem I, lolitrem B, and the related indole-diterpene, paxilline were administered by intraperitoneal injection as DMSO/water solutions (9:1, 50 μL) into mice (Swiss, female, weight 25+3 g). Control mice were injected with the solvent alone. Dose rates which induce an acceptable maximum tremor response are well established for lolitrem B (2 mg/kg; Gallagher and Hawkes, 1986) and paxilline (6 mg/kg; Miles, et al., 1992).
Groups of four mice were used for each treatment group. All animal manipulations were approved by the
AgResearch Ruakura (Hamilton) Animal Ethics Committee established under the Animal Protection (code of ethical conduct) Regulations Act, 1987 (New Zealand). Tremor score was rated 1-5 on the basis of a visual rating scale using well established protocols (Gallagher and Hawkes, 1985; Gallagher and Hawkes, 1986). Tremors were measured regularly until the mice had completely recovered.

[4] = Analysis of porina diets for epoxy-janthitrem I (stability in diet); type: physicochemical; details: average
Procedure: (§1) An agar-based semi-synthetic diet (Popay, 2001) without antimicrobials was prepared and epoxy-janthitrem I dissolved in 100 μL DMSO was added to 10 g of diet. Four concentrations of epoxy-janthitrem I were prepared (1, 2.5, 5, 10 μg/g wet weight) along with a DMSO control. Discs of diet (7 mm diam.) were taken and placed on top of the bark and the lids were replaced. The experiment was kept in the dark at 15° C. After 24 h, each diet was visually scored for feeding on a scale of 0-10 where 0=no feeding and 10=all diet consumed. The amount of webbing present was also scored on a scale of 0-5. The diet disc was replaced daily with fresh diet for 7 days. Each time diet was replaced, samples of the diet that the porina had fed on were taken as well as a sample of the fresh diet to analyse for epoxy-janthitrem I. Porina were reweighed at the completion of the trial.

[5] = tested on: Porina (Wiseana cervinata) larvae; assay: Porina bioassay of purified epoxy-janthitrem I in semi-synthetic diet (Example 4); type: in vivo
Procedure: Six week-old porina (W. cervinata) larvae reared from eggs (Popay, 2001) were starved overnight and then weighed individually. Larvae were assigned to replicates so that all larvae within a replicate were of a similar weight but randomised amongst treatments. The 20 replicate larvae per treatment were each placed in specimen containers (75 mL) half filled with commercially available fine bark chips.
as §1
The feeding score data were normalised by square root transformation before a repeated measures analysis was carried out using REML with treatment and date as factors. The daily webbing score and weight change of larvae over 7 days were analysed using ANOVA, blocked by replicate, to make pairwise comparisons for each concentration with the solvent control at each date.

## CC(C)=CCOC(C)(C)C1OC2CC[C@]3(C)[C@@]4(C)c5[nH]c6cc7c(cc6c5CC4CC[C@@]3(O)C23O[C@H]3[C@@H]1O)CC1C7=CC(C)(C)OC1(C)C (stereo partly drawn) [epoxy-janthitrem III]
[1]
  inhibition of feeding at the highest concentration: little inhibition of feeding
Mice (Swiss, female) [2]
  peak tremor score (comparison among epoxy-janthitrems): lowest peak tremor scores

## CC(C)=CC1O[C@@H]2C(OC3CC[C@]4(C)[C@@]5(C)c6[nH]c7cc8c(cc7c6CC5CC[C@@]4(O)C34O[C@@H]24)CC2C8=CC(C)(C)OC2(C)C)C(C)(C)O1 (stereo partly drawn) [epoxy-janthitrem II]
[1]; 2.5 μg/g
  Weight change of larvae: net weigt loss
  Mortality of larvae: high
[1]; 10 μg/g
  Mortality of larvae: high
[1]
  average diet consumption with increasing concentration: decreased with increasing epoxy-janthitrem concentration
Mice (Swiss, female) [2]; EJ I 13.5, EJ II 14.2, EJ III 17.2, EJ IV 16.5, EJ triol 16.2 mg/kg
  time of peak tremorgenicity: 9 hours post administration

## CC(=O)O[C@@H]1C(C(C)(C)OCC=C(C)C)OC2CC[C@]3(C)[C@@]4(C)c5[nH]c6cc7c(cc6c5CC4CC[C@@]3(O)C23O[C@@H]13)CC1C7=CC(C)(C)OC1(C)C (stereo partly drawn) [epoxy-janthitrem IV]
[1]
  inhibition of feeding at the highest concentration: little inhibition of feeding

## CC(=O)O[C@@H]1C(C(C)(C)O)OC2CC[C@]3(C)[C@@]4(C)c5[nH]c6cc7c(cc6c5CC4CC[C@@]3(O)C23O[C@@H]13)CC1C7=CC(C)(C)OC1(C)C (stereo partly drawn) [epoxy-janthitrem I]
Mice (Swiss, female) [3]; 8 mg/kg intraperitoneal
  tremor response: only a low tremor response
[4]; analysed at time zero
  concentration of epoxy-janthitrem I in diet relative to expected: 98%
[4]; diets after 24 h
  epoxy-janthitrem I remaining in diet, % of the starting concentration: 81%
[1]; 2.5 μg/g
  Weight change of larvae: net weigt loss
  Mortality of larvae: high
[1]; 10 μg/g
  Mortality of larvae: high
[1]
  average diet consumption with increasing concentration: decreased with increasing epoxy-janthitrem concentration
[1]; lowest dose (1 μg/g wet weight)
  effect on consumption at the lowest dose: substantial inhibitory effect
Mice (Swiss, female) [2]
  peak tremor score (comparison among epoxy-janthitrems): significantly greater than that observed for any of the other epoxy-janthitrems
[5]; 1-10 ppm in diet, 7 days
  Weight change of larvae: continued to decline with increasing concentration
[5]; 1 ppm in diet, P<0.05 vs solvent control
  % gain in weight: 51.1%
[5]; 1 ppm in diet, apart from the first day
  feeding score vs solvent control: did not differ significantly from the solvent control
[5]; 2.5 ppm in diet
  feeding score vs solvent control: consistent reduction in feeding score for the first 6 days
[5]; 5 ppm in diet, entire period of the bioassay
  feeding score vs solvent control: feeding was strongly inhibited
[5]; 10 ppm in diet, entire period of the bioassay
  feeding score vs solvent control: feeding was strongly inhibited
[5]; all concentrations except 1 ppm
  Weight gain of larvae relative to the solvent control: significantly reduced
[5]; extrapolated from dry weight of diet (about ten times wet weight concentrations)
  in planta concentration that will reliably reduce larval feeding: ≥ 25 ppm
[5]; treatments containing epoxy-janthitrem I (1, 2.5, 5, 10 μg/g wet weight), 7 days
  Survival of larvae during the experiment: 100%

## CC1(C)C=C2c3cc4[nH]c5c(c4cc3CC2C(C)(C)O1)CC1CC[C@@]2(O)C34O[C@H]3[C@H](O)C(C(C)(C)O)OC4CC[C@]2(C)[C@@]51C (stereo partly drawn) [epoxy-janthitriol]
[1]
  average diet consumption with increasing concentration: decreased with increasing epoxy-janthitrem concentration
Mice (Swiss, female) [2]
  peak tremor score (comparison among epoxy-janthitrems): lowest peak tremor scores

## CC(C)(O)C1OC2CC[C@@]3(C)[C@@](O)(CCC4Cc5c([nH]c6ccccc56)[C@@]43C)C2=CC1=O (stereo partly drawn) [paxilline, Paxilline]
Mice (Swiss, female) [3]; ip, paxilline 6 mg/kg
  time of tremor peak: 30 mins post-dosing
  time to complete recovery: ≤ 6 hours post-dosing

Source: US20230145729A1, “INDOLE DITERPENE BIOSYNTHESIS” (priority 2020, published 2023)
